Consider 15 compounds from ChEMBL document CHEMBL1201862, “PubChem BioAssay data set” (2004).

A short description of test [1]: inhibitors of PGC1a acetylation in cells, dose response, cell-based, cherry-picked samples (AID 720514).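 Note: potency may reflect raised or lowered acetylation signal.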 The test is classed as functional.
Test [2] in a line: HepG2 cell cytotoxicity, dose response, cytotoxicity control, cherry-picked samples (AID 1159577). The test is classed as functional, cell-based.
Test [3] deals with Paired box protein Pax-8 (Homo sapiens, UniProt Q06710). In words: inhibitors of PAX8-driven TPO luciferase reporter, dose response, RMG-I cells, cherry-pick (AID 687027).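 Note: luciferase reporter driven by Pax8 target thyroperoxidase promoter measured by SteadyGlo luminescence.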 The test is classed as functional, cell-based. On the technique in general: Reporter assays use an easily measured gene product as a stand-in for the process of interest.
Test [4] can be described thus: P. falciparum Dd2 growth inhibitors, dose response, SYBR Green, cherry-picked samples (AID 1159567). The test is classed as functional, cell-based.
The nature of test [5]: HeLa 2N DNA content increase, dose response, cell-based, IC50 (AID 1117349). The test is classed as functional.
A short description of test [6]: cytotoxicity toward HCT116 cells – cell-based, CellTiter-Glo luminescence, IC50, dose response (AID 1117332). The test is classed as functional. The note with it: HCT-116. (ATP-based viability assays read luminescence as a measure of living cells.)
The nature of test [7]: Dose-response inhibition of insulin secretion in a rat insulinoma line at 5 mM glucose (AID 1117331). The note with it: INS-1E. The test is classed as functional, cell-based.
Test [8] in a line: CellTiter-Glo luminescent dose response of DLD-1 viability loss (AID 1117352). The test is classed as functional.
Test [9] in a line: SNU-C1 cell viability reduction, dose response, CellTiter-Glo luminescence (AID 1117323). The test is classed as functional, cell-based.
Test [10] can be described thus: HeLa 4N DNA content increase, dose response, cell-based, IC50 (AID 1117351). The test is classed as functional.
The nature of test [11]: cells. The test is classed as functional, cell-based. The note with it: INS-1E.
Test [12] in a line: RKO cell viability reduction, dose response, CellTiter-Glo luminescence (AID 1117322). The test is classed as functional.
A short description of test [13]: cytotoxicity toward Colo320 cells – cell-based, CellTiter-Glo luminescence, IC50, dose response (AID 1117334). The test is classed as functional. The note with it: COLO 320.
Test [14] in a line: Concentration-dependent survival of SW480 colon cancer line, luminescence detection with CellTiter-Glo, half-maximal inhibitory concentration (AID 1117338). The test is classed as functional.
In test [15] the target is NAD-dependent protein deacylase sirtuin-5, mitochondrial (Homo sapiens, UniProt Q9NXA8). Kind of test: SIRT5 deacylase inhibitors, dose response, biochemical, fluorescence imaging, cherry-pick, set 6 (AID 720597).
Test [16] can be described thus: cytotoxicity in OVCAR8 ovarian cancer cells, dose response, PAX8 project, cell-based, plate reader, dry powder samples (AID 743197). The test is classed as functional. Conditions: OVCAR-8.
Test [17] deals with CAAX prenyl protease 2 (Saccharomyces cerevisiae S288c, UniProt Q03530). The test is classed as biochemical.
Test [18] in a line: cells. Conditions: HEK293.
Test [19] is described as follows: Luminescence Cell-Based Dose Retest to Confirm Inhibitors of Cancer Stem Cells. [Related pubchem assays (depositor defined):AID2717, AID2721]. The test is classed as functional. The note with it: Homo sapiens.
A short description of test [20]: cells. The note with it: A549.
Test [21] is described as follows: HepG2 cell cytotoxicity, dose response, cytotoxicity control, ATP luminescence, cherry-pick, set 6 (AID 1053125). The test is classed as functional, cell-based.
For test [22], the target named is Metabotropic glutamate receptor 5 (Rattus norvegicus, UniProt P31424). Kind of test: Identification of a glycine sulfonamide based non-MPEP site positive allosteric potentiator (PAM) of mGlu5 (calcium_assay). The test is classed as functional.
The target in test [23] is E3 ubiquitin-protein ligase UHRF1 (Homo sapiens, UniProt Q96T88). Kind of test: Counterscreen for inhibitors of 5-meCpG-binding domain protein 2 (MBD2): TRFRET-based biochemical high throughput dose response assay to identify inhibitors of binding of ubiquitin-like with PHD and ring finger domains 1 (UHRF1) to methylated oligonucleotide. In general terms: Counterscreens check selectivity or assay interference.

Test [24] can be described thus: cytotoxicity toward HT-29 cells – cell-based, CellTiter-Glo luminescence, IC50, dose response (AID 1117330). The test is classed as functional.
Test [25] can be described thus: HCT116 cell viability decrease, GSK3B pretreatment – CellTiter-Glo, IC50, dose response (AID 1117339). The test is classed as functional. Conditions: HCT-116.
Test [26] in a line: Late-stage results from the probe development effort to identify antagonists of arginine vasopressin receptor 1a (AVPR1a): fluorescence-based cell-based dose response OXTR inhibition counterscreen assay. The test is classed as functional.
The target in test [27] is Vasopressin V2 receptor (Homo sapiens, UniProt P30518). Kind of test: Late-stage results from the probe development effort to identify antagonists of arginine vasopressin receptor 1a (AVPR1a): fluorescence-based cell-based dose response AVPR2 inhibition counterscreen assay. The test is classed as functional.
Test [28] can be described thus: Late-stage results from the probe development effort to identify antagonists of arginine vasopressin receptor 1a (AVPR1a): fluorescence-based cell-based dose response AVPR1a inhibition assay. The test is classed as functional.
Test [29] has as its target Vasopressin V1b receptor (Homo sapiens, UniProt P47901). Kind of test: Late-stage results from the probe development effort to identify antagonists of arginine vasopressin receptor 1a (AVPR1a): fluorescence-based cell-based dose response AVPR1b inhibition counterscreen assay. The test is classed as functional.
Test [30] in a line: A375 melanoma cell cytotoxicity, dose response, counter-screen for MITF inhibitor project, CellTiter-Glo luminescence, dry powder, set 2 (AID 624489).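 Note: actives are compounds lowering A375 viability meaning general cytotoxicity.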 The test is classed as functional, cell-based. Conditions: A-375.
A short description of test [31]: A375 melanoma cell viability loss, dose response, counter-screen for MITF inhibitor project, CellTiter-Glo luminescence, dry powder, set 4 (AID 624364).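 Note: A375 melanoma cells are MITF independent so this is a counter screen.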 The test is classed as functional, cell-based. Conditions: A-375.
Test [32] addresses Transthyretin (Homo sapiens, UniProt P02766). Kind of test: Luminescence-based cell-based high throughput dose response assay to identify activators of Transthyretin (TTR) transcription. The test is classed as functional.
A short description of test [33]: Late stage assay provider results from the probe development effort to identify selective inhibitors of heat shock protein 90 (HSP90): Absorbance-based cell proliferation assay in MCF7 cells. The test is classed as functional.
A short description of test [34]: Late stage assay provider results from the probe development effort to identify selective inhibitors of heat shock protein 90 (HSP90): Absorbance-based cell proliferation assay in SKBR3 cells. The test is classed as functional. Conditions: SK-BR-3.
Test [35] has as its target T1, Oxysterols receptor LXR-beta (Homo sapiens, UniProt P55055).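 Note: agonist activity at LXR measured by a cell-based luminescence readout across a dose range, run as a counterscreen for daf-12 agonists; HEK293 cells with Gal4-LXR fusion and GAL4-driven luciferase reporter; potency for activation of Gal4-LXR reporter so compounds are agonists.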
T1 sequence (P55055 whole entry): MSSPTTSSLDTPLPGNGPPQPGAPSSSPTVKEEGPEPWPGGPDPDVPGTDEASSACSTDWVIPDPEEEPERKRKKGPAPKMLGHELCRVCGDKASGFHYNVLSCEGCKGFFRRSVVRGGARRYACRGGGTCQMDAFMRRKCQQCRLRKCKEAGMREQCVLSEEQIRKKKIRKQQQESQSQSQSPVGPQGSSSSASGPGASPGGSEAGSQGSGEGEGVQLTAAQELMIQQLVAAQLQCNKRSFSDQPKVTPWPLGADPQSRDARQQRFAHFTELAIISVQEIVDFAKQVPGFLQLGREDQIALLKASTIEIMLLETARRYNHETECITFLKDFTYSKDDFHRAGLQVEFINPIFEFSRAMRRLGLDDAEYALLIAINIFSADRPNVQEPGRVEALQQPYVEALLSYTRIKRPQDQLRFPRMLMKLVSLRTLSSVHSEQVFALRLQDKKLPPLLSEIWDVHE
The test is classed as functional, cell-based.

In test [36] the target is Muscarinic acetylcholine receptor M5 (Homo sapiens, UniProt P08912). In words: M5 receptor positive allosteric modulators, dose response, cell-based, concentration-response curve (AID 651878). The test is classed as functional.
The nature of test [37]: cytotoxicity in A549 cells, dose response, cytotoxicity control, cell-based, CellTiter-Glo luminescence, cherry-pick (AID 743484). The test is classed as functional.

Each structure is given as a SMILES string. Activity calls are given as the source filed them.

Chain of Paired box protein Pax-8 (Q06710 whole entry): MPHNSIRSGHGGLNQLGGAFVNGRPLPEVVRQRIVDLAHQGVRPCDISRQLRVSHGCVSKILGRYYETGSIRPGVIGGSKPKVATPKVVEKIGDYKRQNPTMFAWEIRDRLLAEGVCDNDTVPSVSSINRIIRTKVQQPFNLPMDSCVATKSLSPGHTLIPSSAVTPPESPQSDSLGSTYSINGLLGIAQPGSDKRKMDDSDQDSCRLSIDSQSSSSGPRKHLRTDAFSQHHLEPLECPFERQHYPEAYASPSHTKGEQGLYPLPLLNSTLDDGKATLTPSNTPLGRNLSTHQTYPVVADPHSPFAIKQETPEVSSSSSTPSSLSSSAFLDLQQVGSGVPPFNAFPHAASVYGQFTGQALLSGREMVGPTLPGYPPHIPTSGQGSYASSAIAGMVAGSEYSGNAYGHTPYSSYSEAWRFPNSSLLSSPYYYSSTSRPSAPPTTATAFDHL
Chain of Metabotropic glutamate receptor 5 (P31424 whole entry, the tested form may be a part): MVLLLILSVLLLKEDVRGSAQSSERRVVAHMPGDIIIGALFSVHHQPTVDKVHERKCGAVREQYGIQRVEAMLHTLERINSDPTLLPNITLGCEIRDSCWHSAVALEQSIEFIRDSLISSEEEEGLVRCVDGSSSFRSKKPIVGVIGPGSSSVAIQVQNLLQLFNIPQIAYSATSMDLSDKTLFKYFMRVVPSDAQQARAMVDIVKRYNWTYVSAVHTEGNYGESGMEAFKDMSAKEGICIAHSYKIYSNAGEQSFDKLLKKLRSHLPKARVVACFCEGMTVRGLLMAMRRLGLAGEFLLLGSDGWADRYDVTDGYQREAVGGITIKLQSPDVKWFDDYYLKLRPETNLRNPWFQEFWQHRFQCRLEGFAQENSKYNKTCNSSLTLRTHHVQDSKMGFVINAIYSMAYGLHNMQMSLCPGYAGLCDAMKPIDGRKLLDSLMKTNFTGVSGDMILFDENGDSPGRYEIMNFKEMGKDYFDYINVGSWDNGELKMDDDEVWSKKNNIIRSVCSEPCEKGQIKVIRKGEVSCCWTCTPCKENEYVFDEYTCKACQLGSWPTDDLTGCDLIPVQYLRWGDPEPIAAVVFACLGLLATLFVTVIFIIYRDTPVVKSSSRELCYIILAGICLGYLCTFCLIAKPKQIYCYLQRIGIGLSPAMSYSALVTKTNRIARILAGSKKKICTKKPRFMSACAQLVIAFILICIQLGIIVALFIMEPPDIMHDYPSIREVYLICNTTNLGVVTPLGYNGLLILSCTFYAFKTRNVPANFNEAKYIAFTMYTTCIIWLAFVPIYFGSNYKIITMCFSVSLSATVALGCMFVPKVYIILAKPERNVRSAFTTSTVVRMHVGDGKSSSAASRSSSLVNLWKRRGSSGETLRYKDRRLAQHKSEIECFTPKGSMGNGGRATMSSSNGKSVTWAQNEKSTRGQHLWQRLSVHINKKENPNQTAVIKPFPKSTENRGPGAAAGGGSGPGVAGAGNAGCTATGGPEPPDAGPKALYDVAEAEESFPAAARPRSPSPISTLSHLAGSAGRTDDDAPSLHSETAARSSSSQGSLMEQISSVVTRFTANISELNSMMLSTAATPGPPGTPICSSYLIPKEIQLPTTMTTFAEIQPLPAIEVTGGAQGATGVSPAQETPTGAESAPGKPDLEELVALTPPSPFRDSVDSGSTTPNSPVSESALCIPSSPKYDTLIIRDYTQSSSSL
Chain of Vasopressin V1b receptor (P47901 whole entry): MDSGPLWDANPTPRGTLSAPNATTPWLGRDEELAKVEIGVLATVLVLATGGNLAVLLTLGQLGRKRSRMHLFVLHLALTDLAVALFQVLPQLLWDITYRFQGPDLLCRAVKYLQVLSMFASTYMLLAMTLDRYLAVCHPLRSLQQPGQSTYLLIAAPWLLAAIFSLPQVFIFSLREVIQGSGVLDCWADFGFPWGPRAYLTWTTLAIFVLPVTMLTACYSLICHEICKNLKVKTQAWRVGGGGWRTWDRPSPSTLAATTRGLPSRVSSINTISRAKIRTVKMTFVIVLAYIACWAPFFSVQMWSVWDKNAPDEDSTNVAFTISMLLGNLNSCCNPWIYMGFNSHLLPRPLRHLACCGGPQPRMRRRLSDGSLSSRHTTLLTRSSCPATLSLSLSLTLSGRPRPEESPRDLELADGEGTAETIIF
Chain of NAD-dependent protein deacylase sirtuin-5, mitochondrial (Q9NXA8 whole entry): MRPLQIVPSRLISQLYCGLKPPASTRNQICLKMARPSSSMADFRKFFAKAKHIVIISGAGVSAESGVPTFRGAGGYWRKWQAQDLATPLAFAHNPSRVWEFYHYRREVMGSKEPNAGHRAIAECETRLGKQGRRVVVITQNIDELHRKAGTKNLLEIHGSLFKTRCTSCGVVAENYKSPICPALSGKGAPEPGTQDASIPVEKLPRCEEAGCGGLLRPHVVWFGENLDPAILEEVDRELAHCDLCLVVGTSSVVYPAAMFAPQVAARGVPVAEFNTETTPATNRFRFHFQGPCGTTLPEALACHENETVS
Chain of Muscarinic acetylcholine receptor M5 (P08912 whole entry): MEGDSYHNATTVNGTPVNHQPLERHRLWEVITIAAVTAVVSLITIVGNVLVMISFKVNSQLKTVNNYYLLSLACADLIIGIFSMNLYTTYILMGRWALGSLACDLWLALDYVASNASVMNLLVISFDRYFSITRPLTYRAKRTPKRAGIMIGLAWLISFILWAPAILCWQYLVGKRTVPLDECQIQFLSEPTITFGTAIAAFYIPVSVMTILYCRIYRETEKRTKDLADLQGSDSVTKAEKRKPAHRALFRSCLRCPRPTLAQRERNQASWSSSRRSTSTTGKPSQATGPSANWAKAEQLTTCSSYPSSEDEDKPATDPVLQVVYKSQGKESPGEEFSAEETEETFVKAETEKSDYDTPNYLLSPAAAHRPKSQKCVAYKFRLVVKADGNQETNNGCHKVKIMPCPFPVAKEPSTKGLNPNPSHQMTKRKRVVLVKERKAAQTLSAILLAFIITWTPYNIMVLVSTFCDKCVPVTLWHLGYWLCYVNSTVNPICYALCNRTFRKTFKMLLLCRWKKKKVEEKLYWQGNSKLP
Chain of CAAX prenyl protease 2 (Q03530 whole entry): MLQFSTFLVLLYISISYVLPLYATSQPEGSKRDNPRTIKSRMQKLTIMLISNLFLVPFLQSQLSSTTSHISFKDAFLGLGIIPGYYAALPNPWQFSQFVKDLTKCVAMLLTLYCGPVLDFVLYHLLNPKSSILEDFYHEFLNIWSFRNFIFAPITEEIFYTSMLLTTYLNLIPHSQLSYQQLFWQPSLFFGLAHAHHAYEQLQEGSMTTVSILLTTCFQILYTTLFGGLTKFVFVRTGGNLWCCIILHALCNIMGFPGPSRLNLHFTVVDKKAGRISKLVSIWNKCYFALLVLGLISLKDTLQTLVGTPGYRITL
Chain of Vasopressin V2 receptor (P30518 whole entry): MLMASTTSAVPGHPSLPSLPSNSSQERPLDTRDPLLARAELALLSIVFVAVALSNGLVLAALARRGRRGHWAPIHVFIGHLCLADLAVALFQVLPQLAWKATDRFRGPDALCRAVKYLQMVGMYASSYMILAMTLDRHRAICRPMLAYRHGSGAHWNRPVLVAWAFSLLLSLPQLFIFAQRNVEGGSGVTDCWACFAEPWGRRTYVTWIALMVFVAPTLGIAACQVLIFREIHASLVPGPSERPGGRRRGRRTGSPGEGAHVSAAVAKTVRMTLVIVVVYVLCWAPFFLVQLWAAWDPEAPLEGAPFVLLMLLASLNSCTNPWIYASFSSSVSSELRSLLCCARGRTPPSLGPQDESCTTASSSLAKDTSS
Chain of E3 ubiquitin-protein ligase UHRF1 (Q96T88 whole entry, the tested form may be a part): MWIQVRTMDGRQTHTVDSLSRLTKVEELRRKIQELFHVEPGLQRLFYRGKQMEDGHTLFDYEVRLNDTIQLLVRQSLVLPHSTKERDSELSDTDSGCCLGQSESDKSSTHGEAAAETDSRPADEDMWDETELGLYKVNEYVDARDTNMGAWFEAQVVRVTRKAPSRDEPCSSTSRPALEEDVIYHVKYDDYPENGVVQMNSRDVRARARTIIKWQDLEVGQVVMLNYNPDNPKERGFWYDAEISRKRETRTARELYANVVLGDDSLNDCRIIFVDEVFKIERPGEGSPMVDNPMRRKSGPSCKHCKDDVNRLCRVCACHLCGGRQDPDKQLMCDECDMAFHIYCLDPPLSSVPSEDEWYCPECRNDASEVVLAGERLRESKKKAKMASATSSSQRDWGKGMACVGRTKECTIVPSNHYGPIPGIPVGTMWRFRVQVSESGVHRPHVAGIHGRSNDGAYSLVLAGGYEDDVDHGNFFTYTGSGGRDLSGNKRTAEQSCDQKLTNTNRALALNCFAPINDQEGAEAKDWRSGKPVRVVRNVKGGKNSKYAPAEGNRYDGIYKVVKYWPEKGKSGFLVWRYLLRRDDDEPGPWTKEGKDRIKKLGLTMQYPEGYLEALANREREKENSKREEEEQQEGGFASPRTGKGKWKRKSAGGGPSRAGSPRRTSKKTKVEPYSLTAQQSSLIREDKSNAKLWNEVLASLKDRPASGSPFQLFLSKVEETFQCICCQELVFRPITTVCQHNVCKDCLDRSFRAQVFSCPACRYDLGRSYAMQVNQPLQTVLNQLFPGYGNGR

The AC50 is the concentration at which the activity in the assay is half-maximal. With `O=C(Nc1ccc(C(F)(F)F)cc1)N1C[C@@H]2N[C@H](C1)[C@@H]2c1ccc(-c2cccc(F)c2)cc1`, the AC50 in test [1] is 4.04 µM (active); in test [2], 3.52 µM (active); in [3] it was 22.4 µM (active); in test [4] it was 3.45 µM (active).
Broadly, the IC50 is the concentration that inhibits the measured activity by half. Turning to `CN(C)CCOC(c1ccccc1)c1ccc(Br)cc1` (centres undefined) [BROMODIPHENHYDRAMINE], the IC50 in test [5] is > 10 µM (inactive); in [6], > 20 µM (inactive); in [7] it was 2.77 µM (active); in [8], > 20 µM (inactive); in [9], 3.1 µM (active); in [10] it was > 10 µM (inactive). For the same compound, the IC50 in test [11] is > 33.3 µM (inactive); in test [12], > 20 µM (inactive); in test [13] it was > 20 µM (inactive); in test [14], > 20 µM (inactive).
In the case of `C[C@H](CO)N1C[C@H](C)[C@@H](CN(C)C(=O)C2CCCCC2)OCCCC[C@H](C)Oc2ccc(NC(=O)Nc3ccc(F)cc3)cc2C1=O`, the AC50 in [15] was > 30 µM (inactive).
On to `C[C@H](CO)N1C[C@H](C)[C@@H](CN(C)CC2CCCCC2)Oc2c(NC(=O)CCCCCC(=O)Nc3ccccc3N)cccc2C1=O`, for which the AC50 is 46.8 µM (active) in test [16] and 11.1 µM (active) in test [3].
For `CCCCCCSc1cc(-c2nc3cc(C)ccn3c2NCCCC)ccc1OC`, the half-maximal activity concentration (AC50) in test [17] is 19.8 µM (active); in [18] it was 45.7 µM (active); in test [19] it was 7.54 µM (active); in test [20], 45.6 µM (active); in test [21] it was 30.3 µM (active).
The EC50 is the concentration that produces a half-maximal response. For `CS(=O)(=O)N(CC(=O)NC1CCC1)c1cc(C(F)(F)F)ccc1Cl`, the EC50 in test [22] was 1.39 µM.
For the compound `COc1ccc2c(=O)c3c(=O)n(-c4ccccc4)c(-c4ccc(C)cc4)nc3oc2c1`, the IC50 in test [23] is > 0.541 µM (active).
`Clc1ccc(C(Cn2ccnc2)OCc2ccsc2Cl)c(Cl)c1` (centres undefined) [TIOCONAZOLE]: the IC50 in test [6] was 4.07 µM (active); in test [8], > 20 µM (inactive); in [24] it was > 20 µM (inactive); in test [25] it was 2.84 µM (active); in test [9], 2.18 µM (active); in [12] it was 5.25 µM (inactive). Besides, the results for the IC50 in test [13] and in test [14] were 5.23 µM (inactive) and > 20 µM (inactive), respectively.
In the case of `COc1ccc(N(CC2CC2)C(=O)N2CCN(c3cc(Cl)ccc3C)CC2)cc1`, the IC50 in test [26] is 0.25 µM (active); in [27], 11.3 µM (inactive); in [28], 0.0363 µM (active); in [29], 16.6 µM (inactive).
On to `CCN(CC)CCCNC1=C(Nc2ccccc2)C(=O)c2ccccc2C1=O`, for which the results for the AC50 in [30] and in test [31] were 31 µM (active) and 65 µM (active), respectively.
On to `Cc1cccc(N(C)c2ncnc3onc(-c4ccc(F)cc4)c23)c1C`, for which the EC50 in [32] was > 167 µM (inactive).
As to `CC(NC(=O)c1coc(=O)c(Br)c1)C1C2CCC3CC(C2)CC31` (centres undefined), the IC50 is 1.8 µM (active) in test [33] and 8.3 µM (active) in test [34].
In the case of `N#Cc1c(N)nc(N)nc1Nc1ccc(Br)cc1`, the EC50 in test [35] is > 67.4 µM (inactive).
As for `O=C1C(=O)N(CCOc2ccc(C(F)(F)F)cc2)c2ccc(OC(F)(F)F)cc21`, the EC50 in [36] is 0.36 µM (active).
Take `Cc1cc(C)c(C#N)c(N2CCN(c3ccccc3)CC2)n1`: in test [37], the AC50 is > 52 µM (inactive).
